Data: US20170261507A1, “Methods for Predicting and Monitoring Cancer Patients' Response to Teatment by Measuring Myeloid Derived Suppressor Cells (MDSCs)” (YISSUM RESEARCH DEVELOPMENT COMPANY OF THE HEBREW …, priority 2014, published 2017)

Columns and labels:
Gr1^+CD11b^+ MDSCs = test: MDSC accumulation in colon, spleen and PBLs of CRC-mice; format: in vivo, mouse
CRC-mice [1] = tested on: CRC-mice
T-cells = test: CFSE T-cell proliferation assay, splenocytes of CRC-mice; format: in vivo, mouse; settings: CFSE-labeled Thy1.2^+ T-cells, TCR-CD28 mediated activation, vs untreated CRC-mice
Procedure: (§1) Splenocytes or purified T-cells isolated by a magnetic column separation system (Miltenyi Biotec) were labeled with 5 M CFSE (Invitrogen) and subjected to TCR-mediated activation as previously described (16). Next, the effect of the given chemotherapies on the immune status was evaluated. This was performed by testing the function of the whole T-cell population (FIG. 9J) as well as the CD8^+ T-cells (FIG. 9K) in all experimental groups along with measurements of the expression levels of CD247 in CD3^+ (FIG. 9L) and in CD8^+ T-cells (FIG. 9M). T-cell proliferative response was assessed by monitoring cell divisions of gated CFSE-labeled Thy1.2^+ (CD90^+) T-cells upon TCR-CD28 mediated activation.

CRC-derived MDSC = test: Ex vivo GM-CSF mediated myeloid-cell differentiation; format: cell-based, mouse; settings: 10 ng/ml GM-CSF, 72 h, vs GM-CSF only
S100A8/9 = settings: MDSCs from spleen of CRC-mice
cleaved caspase-3 = test: Cleaved caspase-3 in splenic MDSCs of treated CRC-mice; format: in vivo, mouse
MDSCs [2] = test: Myeloid cell differentiation in vivo in CRC-mice
CRC-mice [3] = test: Vitality and survival of CRC-mice; format: in vivo, mouse; settings: daily recorded, compared to 5FU, CPT11 treated MDSC depleted or untreated CRC-mice
Procedure: Therefore, MDSC depletion could reduce the harmful effect of CPT11 on the immune status, and thereby enhance the anti-tumor effect. CRC-mice were subjected to either 5FU, CPT11 or a 5FU/CPT11 combination starting at week eight, or were untreated. At the same day of the second DSS administration, CPT11-treated CRC-mice were randomly separated into two groups; one group continued with CPT11 treatment while the second group was treated with anti-Gr1 mAb for MDSC depletion in addition to CPT11 treatment. Three weeks after the second DSS treatment mice were sacrificed and PBLs (FIG. 10B) and colons (FIG. 10C) were analyzed. […] This pattern indicates a beneficial effect of 5FU that attenuates CRC progression with a harmful contribution of CPT11, supporting immunosuppression and tumor progression via its effects on MDSCs.

β-catenin = β-catenin immunohistochemistry of colons of CRC-mice; format: in vivo, mouse
MDSCs [4] = test: BCG chronic inflammation mouse model: ROS and NO^− production by MDSCs; format: in vivo; settings: splenic MDSCs, compared to inflamed-untreated mice
Procedure: (§2) Mice were injected intraperitoneally with 10 mg/kg body weight of Azoxymethan (AOM, purchased from Sigma-Aldrich (St. Louis, Mo., USA)) dissolved in physiological saline twice in two weeks intervals. Two weeks later, 2% dextran sulfate sodium (DSS, purchased from MP biochemicals Inc. (Santa Ana, Calif., USA)) was given in the drinking water over 7 days, followed by 14 days of regular water (15). This cycle was repeated twice. Animals were sacrificed and analyzed three weeks after the last treatment. To induce a pathology-free chronic inflammation, a previously described protocol subjecting mice to heat-killed Mycobacterium […] (BCG) treatment (16) was used.
(§3) Next, the immunoregulatory effects of 5FU and CPT11 were examined in a mouse model for chronic inflammation and associated immunosuppression (10), as described in the materials and method section above and in FIG. 13A. This experiment was performed in order to investigate whether the differential effects of the drugs are related to the presence of the tumor. Briefly, the mouse model for chronic inflammation was established by three repeated injections of heat-killed BCG bacteria. A day after the second BCG injection, mice were treated twice a week with 5FU, CPT11 or a 5FU/CPT11 combination. […] No changes in CD4^+Foxp3^+ Tregs percentage were detected (FIG. 13H), confirming that these chemotherapies specifically affect MDSCs.

MDSCs [5] = test: NO^− and ROS production by MDSCs of treated CRC-mice (flow cytometry); format: in vivo, mouse
MDSCs [6] = test: BCG chronic inflammation mouse model: MDSC levels; format: in vivo; settings: PBLs and spleen, compared to inflamed-untreated mice
Procedure: as §2, §3

[7] = tested on: MDSCs isolated from spleens of CRC-mice; test: NO^− and ROS production in ex vivo cultured MDSCs; format: cell-based, mouse; settings: 2.5 μmol/L, 24 h
CD247 = CD247 expression in T-cells of CRC-mice; format: in vivo, mouse; settings: splenocytes of CRC-mice
Procedure: as §1, with “Next,” for “Splenocytes or purified T-cells isolated by a magnetic column separation system (Miltenyi Biotec) were labeled with 5 M CFSE (Invitrogen) and subjected to TCR-mediated activation as previously described (16). Next,”

TNFα, S100A9 = test: TNFα and S100A9 mRNA in ex vivo cultured MDSCs (Real Time PCR); format: cell-based, mouse; settings: 3 days
[8] = tested on: MDSCs isolated from spleens of CRC mice; test: Cleaved caspase-3 in ex vivo cultured MDSCs, DCs and macrophages; format: cell-based, mouse; settings: ex vivo, various doses, 3 days, dose-dependent
[9] = tested on: stage-4 melanoma patients; test: Ipilimumab treatment of stage-4 metastatic melanoma patients: response and survival; format: in vivo, human
Procedure: The percentage of MDSC with the profile CD11b^+CD33^+HLA-DR^− was measured in peripheral blood samples (3-5 ml) of healthy donors (n=40) and stage-4 melanoma patients (n=56) prior to ipilimumab (anti-CTLA4) treatment. All the melanoma patients were diagnosed with metastatic melanoma. The samples were taken according to the Helsinki approval. Clinical parameters were acquired from the medical records of patients.
In order to evaluate whether MDSC levels in the blood can predict responsiveness to treatment with the anti CTLA4 antibody ipilimumab, the levels of MDSC in the peripheral blood of melanoma patients were measured, as described above, prior to treatment with ipilimumab. […] As shown in FIG. 3A there was a strike correlation between high levels of MDSC in the peripheral blood of patients and subsequent failure to respond to treatment with ipilimumab. Clearly, this parameter could distinguish between the two groups of melanoma patients. In addition, the level of lactate dehydrogenase (LDH) was evaluated before the treatment with ipilimumab began. There was no significant difference between the groups of patients with respect to this parameter (FIG. 3B).
The following experiment was performed in order to evaluate whether MDSC levels in the blood can predict metastatic severity and patient survival. The levels of MDSC, as well as the levels of LDH, were measured in the peripheral blood of melanoma patients, as described above, prior to treatment with ipilimumab. […] In addition, as shown in FIG. 4B higher MDSCs levels are found in the group of patients with high LDH levels (LDH low<480 U/I; LDH high>480 U/I). In addition, the melanoma patients were divided into two groups according to their MDSCs levels measured prior to the ipilimumab treatments; one group was termed Low MDSCs (<55.5%, n=39) and the other group was termed High MDSCs (>55.5%, n=14). The percent survival and their survival in months were evaluated. […] The survival in months of the Low MDSCs group being 11.56±1.2 (n=39) and of the High MDSCs group being 6.857±1.4 (n=14). Apparently, high MDSC levels are predictors of a more severe metastatic profile and of a shorter survival time of the cancer patient.
In this experiment the survival of melanoma patients was correlated with the severity of their metastatic stage and with their LDH levels. The patients were divided into two groups according to their metastatic level prior to ipilimumab treatments; the first group included patients with the relatively lower metastatic severity, namely M1A/B/C, and the second group included patients with the higher, M2, metastatic severity. As shown in FIGS. 5A and 5B the survival of patients in the M1A/B/C group was higher than the survival of the patients in the M2 group, being 12.4±1.2 months (n=35) in the M1A/B/C group and 6.1±1.1 months (n=18) in the M2 group. The patients were divided into two groups according their LDH levels prior to ipilimumab treatments; the first group included patients with the relatively lower LDH level, namely LDH<480 U/I; and the second group included patients with the higher LDH level, namely LDH>480 U/I. As shown in FIGS. 5C and 5D the survival of patients in the LDH low group was higher than the survival of the patients in the LDH high group, being 13.5±1.4 months (n=28) in the LDH low group and 6.6±0.9 months (n=20) in the LDH high group. Apparently, high LDH levels and a severe metastatic stage are predictors of a shorter survival time of the cancer patient.
These patients had high LDH levels on the day the first ipilimumab treatment was given and their staging level was M1C.

Compound: CCc1c2c(nc3ccc(OC(=O)N4CCC(N5CCCCC5)CC4)cc13)-c1cc3c(c(=O)n1C2)COC(=O)[C@]3(O)CC [CPT11, Irinotecan]
- MDSCs within the colon (immunohistochemical probing) (Gr1^+CD11b^+ MDSCs; anti-Gr-1 staining): elevated levels of the cells
- MDSC numbers / infiltration in colon (Gr1^+CD11b^+ MDSCs; lamina propria and epithelium, flow cytometry, vs untreated CRC-mice): increased MDSC numbers
- spleen size (inflammatory response) (CRC-mice [1]; compared to 5FU treated CRC- or control-mice): enlarged spleen size
- tumor load within the colon (hematoxylin-eosin histopathology) (CRC-mice [1]; monotherapy for three weeks, vs untreated CRC mice): no apparent differences in tumor loads
- histopathological analysis of colon sections (hematoxylin-eosin) (CRC-mice [1]; three weeks after second DSS treatment): differentiated adenocarcinoma
- histological analyses of colons (CRC-mice [1]; treated CRC-mice): not only a loss of entire crypts and surface epithelial layer, but also a massive leukocyte infiltration into the mucosa
- T-cell proliferative ability (T-cells): decreased T-cell proliferative ability
- GM-CSF mediated CRC-derived MDSC differentiation (CRC-derived MDSC): prevented cell differentiation
- S100A8/9 mRNA and protein levels (S100A8/9): increased S100A8/9 levels
- cleaved caspase-3 expression in spleen MDSCs (cleaved caspase-3): decreased cleaved caspase-3 levels
- myeloid cell differentiation in vivo (DCs and macrophages) (MDSCs [2]): blocked myeloid cell differentiation
- vitality and survival of the mice (CRC-mice [3]): increased death rates
- β-catenin localization in CRC colons (β-catenin): massive β-catenin accumulation in the nuclei of tumor cells
- ROS and NO^− production (MDSCs [4]): induced opposite effects
- NO^− production (MDSCs [5]; lamina propria and epithelial MDSCs, vs untreated CRC mice): NO^− levels remained elevated
- NO^− and ROS production (MDSCs [5]; splenic MDSCs, compared to untreated CRC-mice): elevated levels
- MDSC levels (MDSCs [6]): induced opposite effects
- NO^− and ROS production in monocytic and granulocyte MDSC populations [7]: increased NO^− (FIG. 9H) and ROS (FIG. 9I) production
- NO^− or ROS production in purified cultured MDSCs [7]: resulted in their elevation
- CD247 expression levels in T-cells (CD247): low CD247 levels
- mRNA levels of TNFα and S100A9 (TNFα, S100A9): increased mRNA levels
- cleaved caspase-3 in purified cultured MDSCs [8]: not CPT11 leads to cleaved caspase-3 up-regulation

Compound: ipilimumab: humanized anti-CTLA4 monoclonal antibody
- survival in months ([9]; LDH high group (>480 U/I, n=20) prior to ipilimumab): 6.6±0.9 months
- survival in months ([9]; LDH low group (<480 U/I, n=28) prior to ipilimumab): 13.5±1.4 months
- survival in months ([9]; M1A/B/C group (n=35), metastatic level prior to ipilimumab): 12.4±1.2 months
- survival in months ([9]; M2 group (n=18), metastatic level prior to ipilimumab): 6.1±1.1 months
- survival in months ([9]; melanoma patients, High MDSCs group (>55.5%, n=14) prior to ipilimumab): 6.857±1.4 months
- survival in months ([9]; melanoma patients, Low MDSCs group (<55.5%, n=39) prior to ipilimumab): 11.56±1.2 months
- patients that responded to the ipilimumab treatment ([9]; out of the 56 patients involved in this study): 14 patients
